Test results published in the METLIN SMRT retention time set (Domingo-Almenara et al. 2019).

Assay: gradient 5% acetonitrile 3 min, to 50% in 2 min, to 85% in 15 min, held 3 min, 100 µL/min
Conditions: column: Zorbax Extend-C18 2.1 x 50 mm; eluents: water / acetonitrile, 0.1% formic acid
Summary of the method: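 Retention times come from adduct peaks that were picked computationally and then checked by hand. The standards, pure and pooled in mixtures of ~100 molecules, were run on a Zorbax Extend-C18 column (2.1 × 50 mm, 1.8 μm) at 100 μL/min with water and acetonitrile, each with 0.1% formic acid. Detection was by quadrupole time-of-flight mass spectrometry in positive and negative ionization mode, with a dead volume of 40 μL and a dwell volume of 900 μL.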

SMILES	RP-LC retention time
O=C(c1ccc2c(c1)CCN2C(=O)C1CCC1)N1CCCC1	589 s
O=C(c1cnn(-c2ccccc2)c1-n1cccc1)N1CCN(c2ccccn2)CC1	623 s
Fc1ccc(-c2csc(Cc3nc(-c4ccc(Cl)cc4)no3)n2)cc1	1310 s
CNC(=O)c1n[nH]c2c1CC(C)CC2 (configuration not stated)	642 s
Cc1oc(C2CCN(S(=O)(=O)c3ccc(F)cc3)CC2)nc1C(=O)N1CCOCC1	789 s
O=C1CCCN1CCCn1c(SCc2c(F)cccc2F)nc2ccccc2c1=O	895 s
Cc1cccc(NC(=O)C2CCCN2S(=O)(=O)c2cc3c(cc2Cl)NC(=O)CO3)c1 (configuration not stated)	822 s
Cc1ccc(CNC(=O)N2CCC(n3c(C(F)(F)F)nc4cccnc43)CC2)cc1	844 s
O=C(Cn1cccc1-c1nnc(C2CC2)o1)N1CCN(c2ccccc2F)CC1	872 s
Cn1nc(C(=O)N2CCCC(c3nnc(C(F)(F)F)o3)C2)ccc1=O (configuration not stated)	638 s
Cc1ccc(C)c(CNC(=O)c2c(C)sc3ccn(C)c(=O)c23)c1	848 s
CCc1cc(=O)n(CC(=O)NCCC2=CCCCC2)c(N)n1	642 s
Cc1scc2nc(C3CCC3)nc(N3CCC(C(=O)N4CCN(c5ccc(F)cc5)CC4)CC3)c12	810 s
CCNc1cc(N2CCC(CCC(=O)NCc3ccccc3F)CC2)ncn1	646 s
Cn1ncn2cc(S(=O)(=O)NCc3ccc(Cl)cc3)cc2c1=O	817 s
CCCNc1cc(N2CCC(CCC(=O)N(C)CCc3ccccn3)CC2)ncn1	570 s
CCOCC(=O)N1CCOc2ccc(N(C)C)cc2C1	566 s
COCc1noc([C@@H]2CN(C(=O)C3(c4ccccc4)CC3)C[C@H]2CO)n1	676 s
Cc1c(CN2CCC[C@H]2c2nc(-c3ccccc3)n[nH]2)cnn1C	584 s
CC1CN(C(=O)CCC(=O)NCCCN2CCC(N3CCCCC3)CC2)c2ccccc2O1 (configuration not stated)	573 s
CC1CCN(c2ccc(-c3noc(CN4CCN(c5ccccn5)CC4)n3)cn2)CC1	570 s
Cc1cc(S(=O)(=O)[C@H]2CS(=O)(=O)C[C@@H]2N2CCN(c3ccc(F)cc3)CC2)ccc1F	662 s
COc1cc(CNC(=O)c2cc(C(C)(C)C)n3nccc3n2)cc(OC)c1	1110 s
O=C(NC1CC1)C1CCN(c2cnn(Cc3ccccc3)c(=O)c2)CC1	681 s

Continued, values first:

RP-LC retention time	SMILES
968 s	COc1cccc(NC(=O)N2CCOc3ccc(C)cc32)c1
976 s	O=C(NCCCc1ccccc1)C1CCN(c2ncnc3c2oc2ccccc23)CC1
866 s	CCc1ccc(N2C(=O)CN(Cc3ccc(OC)cc3)[C@H]3CS(=O)(=O)C[C@H]32)cc1
738 s	Cc1cc(C)n(-c2ccc(C(=O)Nc3ccc(O)cc3)cn2)n1
925 s	O=C(Nc1cccc(C(=O)NCCC2=CCCCC2)c1)C1=CSCCO1
780 s	Cc1nn(C)c(C)c1CCN(C)c1ccc(C(=O)O)cc1NC(=O)c1ccc(Cl)cc1
595 s	Cc1ccc(CNC(=O)Cn2c(N)nc(C)cc2=O)cc1
777 s	O=C(Cc1csc(NC(=O)c2cnccn2)n1)Nc1cccc(C(F)(F)F)c1
990 s	Cc1nn(CC(=O)NCc2ccco2)c(=O)c2c(-n3cccc3)n(-c3ccc(Cl)cc3)nc12
846 s	CCOc1ccc(NS(=O)(=O)c2cc(C(=O)N3CCN(c4ccccc4OC)CC3)n[nH]2)cc1
731 s	Cc1ccc2nc(C(=O)NCc3ccc(OC(C)C)cc3)cn2c1
1010 s	COc1ccc(C(=O)c2cn(CC(=O)c3ccc(Cl)cc3)c3nc(C)ccc3c2=O)cc1
771 s	COC(=O)c1ccc(C(=O)NCC(O)c2cccc3ccccc23)cc1 (configuration not stated)
